Patent US4789542A, “Radioiodinated glucose analogues for use as imaging agents” (The United States of America as represented by the United …, priority 1986, dated 1988)
Where two headings read alike, the source gives them in different places.

Test: Distribution of radioactivity in tissues of female rats after intravenous administration
Format: in vivo
Settings: rat; for Brain/Blood ratio / Distribution of radioactivity, Brain / Heart/Blood ratio / tissue uptake at 5 min / tissue uptake at 0.25 h / tissue uptake at 0.5 h / tissue uptake at 1 h: mean; for tissue uptake at 5 min / tissue uptake at 0.25 h / tissue uptake at 0.5 h / tissue uptake at 1 h: iv
Experimental: A test radiopharmaceutical methyl-2-deoxy-2-(E)-[^125 I]-iodovinyl-2,4,6-0-triacetyl-β-D-altropyranoside 6 was prepared to establish that a deoxy substituted iodovinyl carbohydrate could be delivered to the brain in significant levels with prolonged retention. One novel aspect of the invention was the scission of an anhydro sugar with the Grignard reagent. This technique was chosen because a variety of 2-deoxy iodovinyl carbohydrates could be prepared depending on the position of the anhydro group within the pyranose ring. The process of the synthesis is shown in the drawing.
The distribution of radioactivity in tissues of female rats at 5 minutes, 15 minutes, 30 minutes and 60 minutes after intravenous administration of the iodinated compound is shown in the following table. The level of accumulation of radioactivity in the brain after injection of this agent was a significant 1.65 percent dose/g at 5 minutes but the blood levels were also high resulting in blood ratios of 1.6/1 at 5 minutes.

Brain/Blood ratio (5 min): 1.5666
Distribution of radioactivity, Brain (5 min): 1.6525 percent dose/g
Heart/Blood ratio (5 min): 1.0776
Brain/Blood ratio (15 min): 1.2775
Heart/Blood ratio (15 min): 1.1490
Brain/Blood ratio (30 min): 1.1035
Heart/Blood ratio (30 min): 1.0809
Brain/Blood ratio (60 min (1 hr)): 1.1087
Heart/Blood ratio (60 min (1 hr)): 1.0408
Distribution of radioactivity, Brain (60 min (1 hr), 60 min): 0.7237 percent dose/g
Brain retention at 60 minutes compared with the peak uptake at 5 minutes (60 min vs 5 min): 50%
tissue uptake at 5 min (blood, 5 min, read-out: Distribution of radioactivity, Blood): 1.05 %ID/g
tissue uptake at 0.25 h (blood, 15 min, read-out: Distribution of radioactivity, Blood): 0.933 %ID/g
tissue uptake at 0.5 h (blood, 30 min, read-out: Distribution of radioactivity, Blood): 0.0037 %ID/g
tissue uptake at 1 h (blood, 60 min (1 hr), read-out: Distribution of radioactivity, Blood): 0.653 %ID/g
tissue uptake at 5 min (brain, 5 min, read-out: Distribution of radioactivity, Brain): 1.65 %ID/g
tissue uptake at 0.25 h (brain, 15 min, read-out: Distribution of radioactivity, Brain): 1.19 %ID/g
tissue uptake at 0.5 h (brain, 30 min, read-out: Distribution of radioactivity, Brain): 0.891 %ID/g
tissue uptake at 1 h (brain, 60 min (1 hr), read-out: Distribution of radioactivity, Brain): 0.72 %ID/g
tissue uptake at 5 min (kidney, 5 min, read-out: Distribution of radioactivity, Kidney): 1.55 %ID/g
tissue uptake at 0.25 h (kidney, 15 min, read-out: Distribution of radioactivity, Kidney): 1.57 %ID/g
tissue uptake at 0.5 h (kidney, 30 min, read-out: Distribution of radioactivity, Kidney): 1.7 %ID/g
tissue uptake at 1 h (kidney, 60 min (1 hr), read-out: Distribution of radioactivity, Kidney): 1.57 %ID/g
tissue uptake at 5 min (liver, 5 min, read-out: Distribution of radioactivity, Liver): 1.39 %ID/g
tissue uptake at 0.25 h (liver, 15 min, read-out: Distribution of radioactivity, Liver): 1.37 %ID/g
tissue uptake at 0.5 h (liver, 30 min, read-out: Distribution of radioactivity, Liver): 1.23 %ID/g
tissue uptake at 1 h (liver, 60 min (1 hr), read-out: Distribution of radioactivity, Liver): 1.05 %ID/g
tissue uptake at 5 min (lung, 5 min, read-out: Distribution of radioactivity, Lung): 1.19 %ID/g
tissue uptake at 0.25 h (lung, 15 min, read-out: Distribution of radioactivity, Lung): 1.03 %ID/g
tissue uptake at 0.5 h (lung, 30 min, read-out: Distribution of radioactivity, Lung): 0.833 %ID/g
tissue uptake at 1 h (lung, 60 min (1 hr), read-out: Distribution of radioactivity, Lung): 0.663 %ID/g
tissue uptake at 5 min (thyroid, 5 min, read-out: Distribution of radioactivity, Thyroid): 20.6 %ID/g
tissue uptake at 0.25 h (thyroid, 15 min, read-out: Distribution of radioactivity, Thyroid): 18.9 %ID/g
tissue uptake at 0.5 h (thyroid, 30 min, read-out: Distribution of radioactivity, Thyroid): 25.7 %ID/g
tissue uptake at 1 h (thyroid, 60 min (1 hr), read-out: Distribution of radioactivity, Thyroid): 33.5 %ID/g
Retention in the brain (up to 60 min): prolonged retention in the brain
Structure (SMILES): CO[C@@H]1O[C@H](COC(C)=O)[C@@H](OC(C)=O)[C@@H](OC(C)=O)[C@@H]1/C=C/[125I] [methyl-2-deoxy-2-(E)-[^125 I]-iodovinyl-2,4,6-0-triacetyl-β-D-altropyranoside]
Stability to in vivo deiodination (from low thyroid accumulation) (up to 60 min): demonstrated the stability of this agent to in vivo deiodination
